Results taken from patent US4234579A, “Penicillanic acid 1,1-dioxides as β-lactamase inhibitors” (priority 1979, dated 1980).
In brackets after ≈: the same amount, converted by molar mass. Where two headings read alike, the source gives them in different places.

How the values were obtained:
Staphylococcus aureus [1] = test: Mode MIC of antibiotic and PA 1,1-Dioxide alone and in combination; assay type: cell-based; conditions: for MIC: Staphylococcus aureus, 18 h, read-out: Mode MIC alone; for Mode MIC's of Cefazolin and PA 1,1-Dioxide in Combination: Cefazolin + PA 1,1-Dioxide in combination
Excerpt: (§1) As indicated hereinbefore, the compounds of formula I, wherein R^1 is hydrogen or an ester-forming residue readily hydrolyzable in vivo, are antibacterial agents of medium potency. […] The procedure which is followed is the one recommended by the International Collaborative Study on Antibiotic Sensitivity Testing (Ericcson and Sherris, Acta. Pathologica et Microbiologia Scandinav, Supp. 217, Section B: 64-68 [1971]), and employs brain heart infusion (BHI) agar and the inocula replicating device. Overnight growth tubes are diluted 100 fold for use as the standard inoculum (20,000-10,000 cells in approximately 0.002 ml. are placed on the agar surface; 20 ml. of BHI agar/dish). Twelve 2 fold dilutions of the test compound are employed, with initial concentration of the test drug being 200 mcg./ml. Single colonies are disregarded when reading plates after 18 hrs. at 37° C. The susceptibility (MIC) of the test organism is accepted as the lowest concentration of compound capable of producing complete inhibition of growth as judged by the naked eye.
(§2) The manner in which the said compounds of the formula I increase the effectiveness of a β-lactam antibiotic can be appreciated by reference to experiments in which the MIC of a given antibiotic alone, and a compound of the formula I wherein R^1 is hydrogen, alone, are measured. These MIC's are then compared with the MIC values obtained with a combination of the given antibiotic and the compound of the formula I wherein R^1 is hydrogen. […] The MIC values of combinations are measured using the method described by Barry and Sabath in "Manual of Clinical Microbiology", edited by Lenette, Spaulding and Truant, 2nd Edition, 1974, American Society for Microbiology.
(§3) From Table II, it can be seen that against 19 ampicillin-resistant strains of Staphylococcus aureus, the mode MIC of ampicillin, and of penicillanic acid 1,1-dioxide, is 200 mcg./ml. […] The other entries in Table II show enhancement of the antibacterial effectiveness of ampicillin against 26 ampicillin resistant strains of Haemophilus influenzae, 18 ampicillin resistant strains of Klebsiella pneumoniae, and 15 strains of the anerobe Bacteroides fragilis. Tables III, IV and V show enhancement of the antibacterial potency of benzylpenicillin (penicillin G) carbenicillin (α-carboxybenzylpenicillin) and cefazolin, respectively, against strains of S. aureus, H. influenzae, K. pneumoniae and Bacteroides fragilis.

Klebsiella pneumoniae [2] = test: as above; assay type: cell-based; conditions: for MIC: Klebsiella pneumoniae, 18 h, read-out: Mode MIC alone; for Mode MIC's of Cefazolin and PA 1,1-Dioxide in Combination: Cefazolin + PA 1,1-Dioxide in combination
Excerpt: as §1, §2, §3

Bacteroides fragilis = test: as above; assay type: cell-based; conditions: for MIC: Bacteroides fragilis, 18 h, read-out: Mode MIC alone; for Mode MIC's of Cefazolin and PA 1,1-Dioxide in Combination: Cefazolin + PA 1,1-Dioxide in combination
Excerpt: as §1, §2, §3

Haemophilus influenzae = test: as above; assay type: cell-based; conditions: for MIC: Haemophilus influenzae, 18 h, alone; for Mode MIC's of Cefazolin and PA 1,1-Dioxide in Combination: Cefazolin + PA 1,1-Dioxide in combination
Excerpt: as §1, §2, §3

[3] = test system: many microorganisms, particularly those which produce a β-lactamase; test: Enhancement of antibacterial effectiveness of β-lactam antibiotics (combination MIC); assay type: cell-based; conditions: result in words; combination with β-lactam antibiotic
Method: as §2

microbial β-lactamases = test: Inhibition of microbial β-lactamases; assay type: biochemical; conditions: result in words
Staphylococcus epidermis = test: In vitro antibacterial activity (MIC), Table I; assay type: cell-based; conditions: BHI agar, 18 hrs. at 37° C.
Excerpt: as §1

Escherichia coli = test: In vitro antibacterial activity (MIC), Table I; assay type: cell-based; conditions: BHI agar, 18 hrs. at 37° C.
Excerpt: as §1

Pasteurella multocida = test: In vitro antibacterial activity (MIC), Table I; assay type: cell-based; conditions: BHI agar, 18 hrs. at 37° C.
Excerpt: as §1

Streptococcus faecalis = test: In vitro antibacterial activity (MIC), Table I; assay type: cell-based; conditions: Enterococcus faecalis; BHI agar, 18 hrs. at 37° C.
Excerpt: as §1

Salmonella typhimurium = test: In vitro antibacterial activity (MIC), Table I; assay type: cell-based; conditions: Salmonella enterica, BHI agar, 18 hrs. at 37° C.
Excerpt: as §1

Hemophilus influenzae = test: In vitro antibacterial activity (MIC), Table I; assay type: cell-based; conditions: Haemophilus influenzae; BHI agar, 18 hrs. at 37° C.
Excerpt: as §1

Citrobacter freundii = test: In vitro antibacterial activity (MIC), Table I; assay type: cell-based; conditions: BHI agar, 18 hrs. at 37° C.
Excerpt: as §1

Serratia marcescens = test: In vitro antibacterial activity (MIC), Table I; assay type: cell-based; conditions: BHI agar, 18 hrs. at 37° C.
Excerpt: as §1

Enterobacter aerogenes = test: In vitro antibacterial activity (MIC), Table I; assay type: cell-based; conditions: Klebsiella aerogenes; BHI agar, 18 hrs. at 37° C.
Excerpt: as §1

Staphylococcus aureus [4] = test: In vitro antibacterial activity (MIC), Table I; assay type: cell-based; conditions: BHI agar, 18 hrs. at 37° C.
Excerpt: as §1

Klebsiella pneumoniae [5] = test: In vitro antibacterial activity (MIC), Table I; assay type: cell-based; conditions: BHI agar, 18 hrs. at 37° C.
Excerpt: as §1

Providencia = test: In vitro antibacterial activity (MIC), Table I; assay type: cell-based; conditions: BHI agar, 18 hrs. at 37° C.
Excerpt: as §1

Proteus mirabilis = test: In vitro antibacterial activity (MIC), Table I; assay type: cell-based; conditions: BHI agar, 18 hrs. at 37° C.
Excerpt: as §1

Enterobacter clocae = test: In vitro antibacterial activity (MIC), Table I; assay type: cell-based; conditions: BHI agar, 18 hrs. at 37° C.
Excerpt: as §1

Streptococcus pyogenes = test: In vitro antibacterial activity (MIC), Table I; assay type: cell-based; conditions: BHI agar, 18 hrs. at 37° C.
Excerpt: as §1

Neisseria gonorrhoeae = test: In vitro antibacterial activity (MIC), Table I; assay type: cell-based; conditions: BHI agar, 18 hrs. at 37° C.
Excerpt: as §1

Pseudomonas putida = test: In vitro antibacterial activity (MIC), Table I; assay type: cell-based; conditions: BHI agar, 18 hrs. at 37° C.
Excerpt: as §1

Pseudomonas aeruginosa = test: In vitro antibacterial activity (MIC), Table I; assay type: cell-based; conditions: BHI agar, 18 hrs. at 37° C.
Excerpt: as §1

Proteus morgani = test: In vitro antibacterial activity (MIC), Table I; assay type: cell-based; conditions: BHI agar, 18 hrs. at 37° C.
Excerpt: as §1

With `Cc1nnc(SCC2=C(C(=O)O)N3C(=O)[C@@H](NC(=O)Cn4cnnn4)[C@H]3SC2)s1` [Cefazolin, reference compound] the MIC (Staphylococcus aureus [1]; Table V, 20 strains, alone) was 0.78 µg/mL, the Mode MIC's of Cefazolin and PA 1,1-Dioxide in Combination (Staphylococcus aureus [1]; Table V, 20 strains) was 0.2 µg/mL and the MIC (Klebsiella pneumoniae [2]; Table V, 3 strains, alone) was 100 µg/mL. It also gave a Mode MIC's of Cefazolin and PA 1,1-Dioxide in Combination (Klebsiella pneumoniae [2]; Table V, 3 strains) of 6.25 µg/mL, an MIC (Bacteroides fragilis; Table V, 15 strains, alone) of 200 µg/mL and a Mode MIC's of Cefazolin and PA 1,1-Dioxide in Combination (Bacteroides fragilis; Table V, 15 strains) of 6.25 µg/mL. For the same compound, the MIC (Haemophilus influenzae; Table V, 25 strains, read-out: Mode MIC alone) was 25 µg/mL and the Mode MIC's of Cefazolin and PA 1,1-Dioxide in Combination (Haemophilus influenzae; Table V, 25 strains) was 3.12 µg/mL.

In the case of `CC1(C)[C@H](C(=O)O)N2C(=O)C[C@H]2S1(=O)=O` [Penicillanic Acid 1,1-Dioxide], the MIC (Staphylococcus aureus [1]) is reported as 200 µg/mL, the “Mode MIC's of ampicillin and PA 1,1-Dioxide in combination” value (Staphylococcus aureus [1]; Table II, 19 ampicillin-resistant strains, ampicillin + PA 1,1-Dioxide in combination) is reported as 3.12 µg/mL and the Mode MIC alone (Staphylococcus aureus [1]; Table III, 20 strains, alone) is reported as 200 µg/mL. The Mode MIC's of penicillin G and PA 1,1-Dioxide in combination (Staphylococcus aureus [1]; Table III, 20 strains, penicillin G + PA 1,1-Dioxide in combination) was 6.25 µg/mL, the Mode MIC alone (Staphylococcus aureus [1]; Table IV, 20 strains, alone) was 200 µg/mL and the Mode MIC's of carbenicillin and PA 1,1-Dioxide in combination (Staphylococcus aureus [1]; Table IV, 20 strains, carbenicillin + PA 1,1-Dioxide in combination) was 6.25 µg/mL. The Mode MIC's of Cefazolin and PA 1,1-Dioxide in Combination (Staphylococcus aureus [1]; Table V, 20 strains) was 25 µg/mL, the Mode MIC alone (Staphylococcus aureus [1]; Table V, 20 strains, alone) was 200 µg/mL and the MIC (Klebsiella pneumoniae [2]) was 50 µg/mL. For the same compound, the “Mode MIC's of ampicillin and PA 1,1-Dioxide in combination” value (Klebsiella pneumoniae [2]; Table II, 18 ampicillin resistant strains, ampicillin + PA 1,1-Dioxide in combination) was 6.25 µg/mL, the Mode MIC alone (Klebsiella pneumoniae [2]; Table III, 24 strains, alone) was 50 µg/mL and the Mode MIC's of penicillin G and PA 1,1-Dioxide in combination (Klebsiella pneumoniae [2]; Table III, 24 strains, penicillin G + PA 1,1-Dioxide in combination) was 12.5 µg/mL. It also gave a Mode MIC alone (Klebsiella pneumoniae [2]; Table IV, 16 strains, alone) of 50 µg/mL, a Mode MIC's of carbenicillin and PA 1,1-Dioxide in combination (Klebsiella pneumoniae [2]; Table IV, 16 strains, carbenicillin + PA 1,1-Dioxide in combination) of 6.25 µg/mL and a Mode MIC's of Cefazolin and PA 1,1-Dioxide in Combination (Klebsiella pneumoniae [2]; Table V, 3 strains) of 25 µg/mL. The Mode MIC alone (Klebsiella pneumoniae [2]; Table V, 3 strains, alone) was 50 µg/mL, the MIC (Bacteroides fragilis) was 50 µg/mL and the “Mode MIC's of ampicillin and PA 1,1-Dioxide in combination” value (Bacteroides fragilis; Table II, 15 strains, ampicillin + PA 1,1-Dioxide in combination) was 0.78 µg/mL. The Mode MIC alone (Bacteroides fragilis; Table III, 15 strains, alone) was 50 µg/mL, the Mode MIC's of penicillin G and PA 1,1-Dioxide in combination (Bacteroides fragilis; Table III, 15 strains, penicillin G + PA 1,1-Dioxide in combination) was 0.39 µg/mL and the Mode MIC alone (Bacteroides fragilis; Table IV, 15 strains, alone) was 50 µg/mL. The Mode MIC's of carbenicillin and PA 1,1-Dioxide in combination (Bacteroides fragilis; Table IV, 15 strains, carbenicillin + PA 1,1-Dioxide in combination) was 0.78 µg/mL, the Mode MIC's of Cefazolin and PA 1,1-Dioxide in Combination (Bacteroides fragilis; Table V, 15 strains) was 6.25 µg/mL and the Mode MIC alone (Bacteroides fragilis; Table V, 15 strains, alone) was 50 µg/mL. The MIC (Haemophilus influenzae; read-out: Mode MIC alone, Table II, 26 ampicillin resistant strains) was > 200 µg/mL, the MIC (Haemophilus influenzae; read-out: Mode MIC alone, Table III, 25 strains) was 100 µg/mL and the MIC (Haemophilus influenzae; read-out: Mode MIC alone, Table IV, 25 strains) was 100 µg/mL. The MIC (Haemophilus influenzae; read-out: Mode MIC alone, Table V, 25 strains) was 200 µg/mL, the “Mode MIC's of ampicillin and PA 1,1-Dioxide in combination” value (Haemophilus influenzae; Table II, 26 ampicillin resistant strains, ampicillin + PA 1,1-Dioxide in combination) was 3.12 µg/mL and the Mode MIC's of penicillin G and PA 1,1-Dioxide in combination (Haemophilus influenzae; Table III, 25 strains, penicillin G + PA 1,1-Dioxide in combination) was 1.56 µg/mL. For the same compound, the Mode MIC's of carbenicillin and PA 1,1-Dioxide in combination (Haemophilus influenzae; Table IV, 25 strains, carbenicillin + PA 1,1-Dioxide in combination) was 0.78 µg/mL, the Mode MIC's of Cefazolin and PA 1,1-Dioxide in Combination (Haemophilus influenzae; Table V, 25 strains) was 0.2 µg/mL and the “enhancement of antibacterial effectiveness of β-lactam antibiotics” value [3] was “enhances the effectiveness of ampicillin”. The “inhibition of microbial β-lactamases” value (microbial β-lactamases) was “potent inhibitors of microbial β-lactamases”, the MIC (Staphylococcus epidermis) was 200 µg/mL (≈ 857 µM) and the MIC (Escherichia coli) was 50 µg/mL (≈ 214 µM). The MIC (Pasteurella multocida) was 50 µg/mL (≈ 214 µM), the MIC (Streptococcus faecalis) was > 200 µg/mL and the MIC (Salmonella typhimurium) was 50 µg/mL (≈ 214 µM). For the same compound, the MIC (Hemophilus influenzae) was > 50 µg/mL, the MIC (Citrobacter freundii) was 50 µg/mL (≈ 214 µM) and the MIC (Serratia marcescens) was 100 µg/mL (≈ 429 µM). The MIC (Enterobacter aerogenes) was 25 µg/mL (≈ 107 µM), the MIC (Staphylococcus aureus [4]) was 100 µg/mL (≈ 429 µM) and the MIC (Klebsiella pneumoniae [5]) was 50 µg/mL (≈ 214 µM). For the same compound, the MIC (Providencia) was 100 µg/mL (≈ 429 µM), the MIC (Proteus mirabilis) was 100 µg/mL (≈ 429 µM) and the MIC (Enterobacter clocae) was 100 µg/mL (≈ 429 µM). The MIC (Streptococcus pyogenes) was 100 µg/mL (≈ 429 µM), the MIC (Neisseria gonorrhoeae) was 0.312 µg/mL (≈ 1.34 µM) and the MIC (Pseudomonas putida) was > 200 µg/mL. It also gave an MIC (Pseudomonas aeruginosa) of 200 µg/mL (≈ 857 µM) and an MIC (Proteus morgani) of 100 µg/mL (≈ 429 µM).
